This data set can be described thus: Solubility in water. The format is physicochemical. The method, then: The dosage of the amount of Medroxy progesterone acetate thus dissolved in water was determined by spectrophotometry at 241 nm.

The structures appear in SMILES notation.

Consider `CC(=O)O[C@]1(C(C)=O)CC[C@H]2[C@@H]3C[C@H](C)C4=CC(=O)CC[C@]4(C)[C@H]3CC[C@@]21C` [Medroxy progesterone acetate], for which the solubility in water result was “very low”.

The record behind these values is patent USRE39104E1, “Process for the production of dry pharmaceutical forms and the thus obtained pharmaceutical compositions” (Laboratoires Effik, priority 1994, dated 2006).
